Data taken from patent US9814696B2, “Use of coumarin derivatives for the preparation of drugs for treating skin diseases” (UNIVERSITE PIERRE ET MARIE CURIE (PARIS 6), priority 2011, dated 2017).
Read-outs that look alike come from different tables or passages of the source.

Experiments:
[1] = tested on: normal human keratinocytes; experiment: Neutral red uptake (NRU) cytotoxicity test / cell viability; format: cell-based; parameters: cytotoxicity, neutral red uptake test (FIG. 5): dose or concentration left out as unconfirmed; conditions: 48 h, human normal keratinocytes; for cytotoxicity, neutral red uptake test: 1 and 10 μM
Source text: The NRU cytotoxicity assay procedure is a cell survival/viability chemosensitivity assay based on the ability of viable cells to incorporate and bind neutral red (NR), a supravital dye. NR is a weak cationic dye that readily penetrates cell membranes by non-ionic diffusion and accumulates intracellularly in lysosomes. Alterations of the cell surface or the sensitive lysosomal membrane lead to lysosomal fragility and other changes that gradually become irreversible. Such changes caused by the action of xenobiotics result in a decreased uptake and binding of NR. It is thus possible to distinguish between viable, damaged, or dead cells, which is the basis of this assay. After treatment with the small-molecules inhibitors, NR uptake in cells will be measured by spectrophotometry at 540±10 nm.
Keratinocytes from healthy persons or patients with Netherton syndrome are seeded at the density of 4000 cells in 125 μL of medium per well in 96-well plates.
After seeding, cells are incubated for 48 hours in the following experimental conditions: 37° C.±1° C., 90%±5.0% humidity, and 5%±1% CO2/air. This incubation period allows for cell recovery and adherence and progression to exponential growth phase.
Prepare inhibitors solutions 2-fold more concentrated than desired. Add 125 μL of these solutions to the wells without changing or removing the medium (125 μL).
48 h hours after the beginning of the treatment, carefully remove the medium (containing the tested inhibitor) and rinse the cells very carefully with 250 μL pre-warmed PBS.
Add 250 μL NR medium and incubate (37° C.±1° C., 90%±5% humidity, and 5.0%±1% CO2/air) for 3±0.1 h. NR medium is the culture medium containing 33 μg/mL of NR. After incubation, remove the NR medium, and carefully rinse cells with 250 μL pre-warmed PBS.
Measure the absorption (within 60 minutes after adding NR Desorb solution) of the resulting colored solution at 540 nm±10 nm in a microtiter plate reader (spectrophotometer), using the blank as a reference.
A calculation of cell viability expressed as NRU is made for each concentration of the tested inhibitor by using the mean NRU of the three replicate values per each concentration. This value is compared with the mean NRU of all vehicle values. Relative cell viability is then expressed as percent of untreated vehicle control (DMSO).
Normal human keratinocytes were seeded in a 96-well tissue culture plate. At 20% of confluence, molecules were added in the culture medium and incubated for 48 h. Neutral red medium was added to every well for an incubation period of 3 h, then the dye was extracted with acidified ethanol solution. Data (FIGS. 2 and 3) represent the mean cell viability after treatment +/−SD compared to mean viability of cells treated with the vehicle only (DMSO). Data represent the mean of 5 individual experiments.

[2] = tested on: keratinocytes from a Netherton syndrome patient (NSK); experiment: Expression of pro-allergic and inflammatory molecules (indirect KLK5 activity) in Netherton syndrome patient keratinocytes; format: cell-based, human; conditions: 72 h, relative to HPRT
Procedure: 250,000 keratinocytes from a Netherton syndrome patient (NSK) were seeded in 6 well plates in 2 mL of medium made of: (a) half of complete Green medium: (Dulbecco's Modified Eagle Media) 60%; Ham's F12 30%; FCS 10%; adenin […]; insulin 5 μg/mL; hydrocortisone 0.4 μg/mL; cholera toxin 10 nM; triiodothyronin 2 nM; human recombinant EGF 10 ng/mL; penicillin G/streptomycin 100 U/mL; (b) half of a basal medium (Epilife—Cascade Biologics).
When confluent, cells were washed 5 times with PBS and 2 mL of complete Green medium without FCS (fetal calf serum) were added per well.
Inhibitors were added in the culture medium 24 h after medium renewal.
350 μL of RLT lysis buffer (Mini Kit QIAGEN)+β-mercapto-ethanol (0.1%) were added per well to extract total RNA. The cell lysate was kept at −80° C. before RNA extraction (Mini Kit QIAGEN).
In this in cellulo test, KLK5 activity was evaluated by an indirect method. Indeed KLK5 induces TSLP (thymic stromal lymphopoietin), TNFα (tumor necrosis factor alpha) and IL-8 (interleukin 8) expression. If KLK5 activity is inhibited, the expression of these cytokines will be reduced.
The relative amount of TSLP, TNFα and IL-8 transcripts [relative to HPRT (hypoxanthine phosphoribosyltransferase 1) housekeeping gene] was compared between cells treated or not treated with the inhibitors. The ratio <<treated/not treated>> relative to housekeeping gene reflects KLK5 inhibition.
Their expression had also been studied even if their mechanism of induction is not known yet.
The effect of LP73 and CFL33 on the expression of the described pro-allergic and inflammatory cytokines was analyzed on keratinocytes from two different NS patients. Each experiment was performed twice (FIG. 4).

KLK7 = KLK7 (Homo sapiens, UniProt P49862); experiment: KLK7 enzyme inhibition assay, fluorogenic substrate Suc-Leu-Leu-Val-Tyr-AMC; format: biochemical; conditions: for IC50 / inhibition at 50 µM: 37° C., 15 min of incubation, pH 8; for selective activity against enzyme: KLK7: Table B, among KLK5, KLK7 and KLK14
KLK7, sequence (P49862 30-253): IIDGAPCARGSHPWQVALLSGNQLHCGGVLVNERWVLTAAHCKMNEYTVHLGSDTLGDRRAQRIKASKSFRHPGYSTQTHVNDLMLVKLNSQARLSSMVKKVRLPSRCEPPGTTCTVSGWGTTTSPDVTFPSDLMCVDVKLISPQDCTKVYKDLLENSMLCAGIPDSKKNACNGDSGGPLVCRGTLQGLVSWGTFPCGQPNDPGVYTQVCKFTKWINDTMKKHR
Procedure: (§1) Kallikreins KLK5, KLK7 and KLK14 activities were determined by monitoring the hydrolysis of the appropriate fluorogenic substrate (λexc=355, λem=460 nm) for 15 min at 37° C. in the presence of the untreated kallikrein (control) or kallikrein that had been incubated with a test compound. Substrate and compounds were previously dissolved in DMSO, with the final solvent concentration kept constant at 2% (v/v) (KLK 5 and 14), and 4% (v/v) (KLK7). The composition of the activity buffers (pH 8.0) was 100 mM Tris-HCl, 150 mM NaCl, 0.01% (v/v) Tween 20 for the KLK5 assay, and 100 mM Tris-HCl, 1M NaCl, 0.01% (v/v) Tween 20 in the KLK 7 and 14 assays. The final concentrations were 0.6 nM (KLK5) and 100 μM (Boc-Val-Pro-Arg-AMC) (KLK5 assay), 8 nM (KLK7) and 40 μM (Suc-Leu-Leu-Val-Tyr-AMC, AMC: 7-amino-4-methyl-coumarin) (KLK7 assay), and 0.17 nM (KLK14) and 10 μM (Boc-Val-Pro-Arg-AMC) (KLK14 assay). Using the appropriate substrate, the coumarinic compounds (0.01-100 μM) were tested in duplicate for each inhibitor concentration to detect their inhibitory potential. The enzyme and the inhibitors were incubated for 15 min before the determination of the enzyme activity. Initial rates determined in control experiments (V0) were considered to be 100% of the peptidase activity; initial rates below 100% were considered to be inhibitions. The inhibitory activity of compounds was expressed as IC50 (inhibitor concentrations giving 50% inhibition). The values of IC50 were calculated by fitting the experimental data to the equation: % Inhibition=100×(1−Vi/V0)=100[I]0/(IC50+[I]0), or equation: % Inhibition=100[I]0^nH/(IC50^nH+[I]0^nH),nH is the Hill number.
(§2) The tests were realized at 37° C. after 15 min of incubation at pH 8.

KLK14 = target: T1, KLK14 (Homo sapiens, UniProt Q9P0G3); experiment: KLK14 enzyme inhibition assay, fluorogenic substrate Boc-Val-Pro-Arg-AMC; format: biochemical; conditions: 37° C., 15 min of incubation, pH 8
T1 sequence (Q9P0G3 25-251): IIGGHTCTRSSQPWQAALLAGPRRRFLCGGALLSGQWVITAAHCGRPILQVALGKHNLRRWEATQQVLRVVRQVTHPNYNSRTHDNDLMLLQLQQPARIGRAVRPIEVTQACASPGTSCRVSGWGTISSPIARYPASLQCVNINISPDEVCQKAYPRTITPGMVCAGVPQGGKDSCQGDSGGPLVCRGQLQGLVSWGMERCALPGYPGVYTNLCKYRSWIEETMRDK
Procedure: as §1, §2

KLK5 = target: T2, KLK5 (Homo sapiens, UniProt Q9Y337); experiment: KLK5 enzyme inhibition assay, fluorogenic substrate Boc-Val-Pro-Arg-AMC; format: biochemical; conditions: for IC50: 37° C., 15 min of incubation, pH 8
T2 sequence (Q9Y337 23-293): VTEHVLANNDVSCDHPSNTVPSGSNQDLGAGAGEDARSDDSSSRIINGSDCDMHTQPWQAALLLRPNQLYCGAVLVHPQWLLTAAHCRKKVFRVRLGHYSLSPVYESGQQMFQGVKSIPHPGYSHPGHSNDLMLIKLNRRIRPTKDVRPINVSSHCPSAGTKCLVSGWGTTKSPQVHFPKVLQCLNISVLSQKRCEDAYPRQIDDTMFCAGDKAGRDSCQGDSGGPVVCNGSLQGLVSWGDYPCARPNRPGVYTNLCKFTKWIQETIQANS
Procedure: as §1, §2

[3] = tested on: total protease activity of transgenic KLK5 mice skin section; experiment: In situ zymography on transgenic KLK5 mice skin section; format: biochemical; conditions: 5 μM
Procedure: FIG. 6 illustrates the effect of JFR9 compound (5 μM) efficacy on the total protease activity of transgenic KLK5 mice skin section, by in situ zymography.
The protease activity is shown with a gradient of fluorescence. The fluorescence intensity represents the cleavage efficiency of a casein substrate coupled to a FITC group.
JFR9 efficacy has been assayed on transgenic KLK5 mice skin section by in situ zymography (FIG. 6). These mice overexpress KLK5 and reproduce the phenotypic characteristics of Netherton syndrome.

O=C(Oc1cccc(Cl)c1Cl)c1cc2cc(CCl)ccc2oc1=O [LP73]
cytotoxicity, neutral red uptake test [1]: No noticeable cytotoxicity | expression of IL-8 ([2]; 1 μM): significantly inhibited | expression of MDC ([2]; 1 μM): significantly inhibited | expression of TARC ([2]; 1 μM): significantly inhibited | expression of TNFα ([2]; 1 μM): significantly inhibited | expression of TSLP ([2]; 1 μM): significantly inhibited | expression of TARC ([2]; 10 μM): inhibited | expression of TSLP ([2]; 10 μM): inhibited | IC50 (KLK7; Table A, read-out: IC50 (μM) KLK7): 0.063 ± 0.004 µM | selective activity against enzyme: KLK7 (KLK7): KLK7

O=C(Oc1ccc(Cl)cc1)c1cc2cc(CF)ccc2oc1=O [JFR7, 4-Chlorophenyl 6-fluoromethyl-2-oxo-2H-1-benzopyran-3-carboxylate]
inhibition at 50 µM (KLK7): 30% | selective activity against enzyme: KLK7 (KLK7): KLK7 | melting point: 216 to 218 °C

O=C(Oc1ccc2ccccc2c1)c1cc2ccccc2oc1=O [JFR2, 2-Naphthyl 2-oxo-2H-1-benzopyran-3-carboxylate]
inhibition at 50 µM (KLK7): 30% | selective activity against enzyme: KLK7 (KLK7): KLK7 | melting point: 166 to 167 °C

O=C(Oc1nccc2ccccc12)c1cc2ccccc2oc1=O [CFL33, Isoquinolin-1-yl 2-oxo-2H-1-benzopyran-3-carboxylate]
cytotoxicity, neutral red uptake test [1]: No noticeable cytotoxicity | expression of IL-8 ([2]; 1 μM): significantly inhibited | expression of MDC ([2]; 1 μM): significantly inhibited | expression of TARC ([2]; 1 μM): significantly inhibited | inhibition at 100 µM (KLK14; 100 μM): 61% | IC50 (KLK5; Table A, read-out: IC50 (μM) KLK5): 7 ± 0.4 µM | selective activity against enzyme: KLK5 (KLK5; Table B, among KLK5, KLK7 and KLK14): KLK5

O=C(Oc1cccc2ccccc12)c1cc2ccccc2oc1=O [JFR1, 1-Naphthyl 2-oxo-2H-1-benzopyran-3-carboxylate]
inhibition at 50 µM (KLK7): 53% | selective activity against enzyme: KLK7 (KLK7): KLK7 | melting point: 159 to 160 °C

O=C(Oc1cccc(Cl)c1)c1cc2cc(CBr)ccc2oc1=O [JFR9, 3-Chlorophenyl 6-bromomethyl-2-oxo-2H-1-benzopyran-3-carboxylate]
cytotoxicity, neutral red uptake test (FIG. 5) [1]: No noticeable cytotoxicity | total protease activity of skin section (casein-FITC cleavage) [3]: decreased significantly | IC50 (KLK7; Table A2, read-out: IC50 (nM) KLK7): 0.0637 ± 0.0017 µM | selective activity against enzyme: KLK7 (KLK7): KLK7 | IC50 (KLK14; Table A2, read-out: IC50 (nM) KLK14): 2900 ± 100 nM | IC50 (KLK5; Table A2, read-out: IC50 (nM) KLK5): 0.92 ± 0.07 µM
